According to patent US10150737B2, “Compounds for controlling arthropods” (priority 2013, dated 2018):

Assays:
[1] = logP determination by HPLC on a reversed-phase column (C18); format: physicochemical; settings: for log P: HPLC-MS; for logP^a): HPLC-MS method a); for logP: HPLC, C18 reversed phase, acetonitrile/water with formic acid, EEC Directive 79/831 Annex V.A8
Ctenocephalides felis [2] = assay: Ctenocephalides felis - in vitro contact tests with adult cat fleas; format: in vivo; settings: application rate 5 μg/cm2 (=500 g/ha); after 48 h; fleas dead or moribund
Outline: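 Efficacy, as percentage of fleas dead or moribund, was scored at 48 h by knocking fleas to the tube base. Exposure was by contact with a dried acetone film of compound at 5 μg/cm^2 area dose; 5–10 adults per tube, room temperature, ambient humidity.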

Rhipicephalus sanguineus = Rhipicephalus sanguineus - in vitro contact tests with adult brown dog ticks; format: in vivo; settings: after 48 h, ticks dead or moribund
Procedure: For the coating of the test tubes, 9 mg of active ingredient are first dissolved in 1 ml of acetone p.a. and then diluted to the desired concentration with acetone p.a. 250 μl of the solution are distributed homogeneously on the inner walls and base of a 25 ml test tube by turning and rocking on an orbital shaker (rocking rotation at 30 rpm for 2 h). With 900 ppm active ingredient solution and internal surface 44.7 cm^2, given homogeneous distribution, an area-based dose of 5 μg/cm^2 is achieved.
After the solvent has evaporated off, the tubes are populated with 5-10 adult dog ticks (Rhipicephalus sanguineus), sealed with a perforated plastic lid and incubated in a horizontal position in the dark at room temperature and ambient humidity. After 48 h, efficacy is determined. To this end, the ticks are knocked to the floor of the tube and incubated on a hotplate at 45-50° C. for not more than 5 min. Ticks which remain motionless on the floor or move in such an uncoordinated manner that they are unable to deliberately avoid the heat by climbing upwards are considered to be dead or moribund.
An efficacy of 100% means that all the ticks were dead or moribund. 0% efficacy means that none of the ticks had been harmed.

Musca domestica = Musca domestica test; format: in vivo; settings: application rate 100 ppm; adult houseflies; after 2 days
Outline: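 10 adult flies per vessel; sugar-solution sponge dosed with active ingredient formulation (DMSO concentrate diluted in water to desired concentration). Read-out: % kill at 2 days.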

Ctenocephalides felis [3] = assay: Ctenocephalides felis - oral test; format: in vivo; settings: application rate 100 ppm in citrated cattle blood; after 2 days
Outline: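 Roughly 20 unfed adult C. felis imbibe compound-dosed citrated cattle blood (DMSO formulation) across parafilm from a cylinder above their gauze chamber; percentage mortality recorded at day 2.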

Boophilus microplus = Boophilus microplus - injection test; format: in vivo; settings: application rate 20 μg/animal, injection into engorged adult female ticks, after 7 days
Outline: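 Five engorged adult female cattle ticks each received a 1 μl abdominal injection of compound solution in dimethyl sulphoxide. Fertile egg laying was assessed at 7 days, with doubtful eggs incubated about 42 days until hatch. 0% efficacy means all eggs fertile.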

Tetranychus urticae = Tetranychus urticae - spray test, OP-resistant; format: in vivo; settings: bean leaf discs, after 6 days
Outline: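 Mortality (%) read on day 6 after spraying Phaseolus vulgaris leaf discs carrying all mite stages with formulations at the desired concentration. Formulation: active ingredient in acetone plus dimethylformamide, made up with emulsifier-containing water (1000 ppm alkylaryl polyglycol ether).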

Phaedon cochleariae = Phaedon cochleariae - spray test; format: in vivo; settings: larvae on Chinese cabbage leaf discs, after 7 days
Outline: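 Mortality of mustard beetle larvae was scored as % at day 7 on Brassica pekinensis leaf discs. Discs had been treated by spraying at the desired concentration, using an acetone/dimethylformamide solution diluted in water with 1000 ppm alkylaryl polyglycol ether, and dried before larvae were added.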

Lucilia cuprina = Lucilia cuprina test; format: in vivo; settings: application rate 100 ppm; L1 larvae; after 2 days
Outline: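 Mortality (%) of first-instar blowfly larvae, about 20 per vessel, recorded 2 days after exposure to compound-treated minced horsemeat. Compound dissolved in dimethyl sulphoxide, then water-diluted to the desired concentration.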

Spodoptera frugiperda = Spodoptera frugiperda - spray test; format: in vivo; settings: caterpillars on maize leaf discs, after 7 days
Outline: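 Percent mortality of Spodoptera frugiperda caterpillars scored 7 days after placing them on dried maize leaf discs sprayed at the desired concentration. Spray formulation: compound dissolved in acetone/dimethylformamide, made up with water containing 1000 ppm emulsifier.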

Myzus persicae = Myzus persicae - spray test; format: in vivo; settings: Chinese cabbage leaf discs, after 6 days
Outline: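 Mortality of the green peach aphid, as % killed, was read 6 days after spraying infested Brassica pekinensis leaf discs. Compound formulated in acetone/dimethylformamide and made up with emulsifier-containing (1000 ppm) water.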

[4] = test system: Boophilus microplus Parkhurst strain, SP-resistant; assay: Boophilus microplus - dip test; format: in vivo; settings: application rate 100 ppm; dip of engorged adult female ticks; after 7 days
Procedure: Test animals: cattle ticks (Boophilus microplus) Parkhurst strain, SP-resistant
Solvent: dimethyl sulphoxide
10 mg of active ingredient are dissolved in 0.5 ml of dimethyl sulphoxide. For the purpose of producing a suitable formulation, the active ingredient solution is diluted with water to the concentration desired in each case.
This active ingredient formulation is pipetted into tubes. 8-10 adult engorged female cattle ticks (Boophilus microplus) are transferred into a further tube with holes. The tube is immersed into the active ingredient formulation, and all the ticks are completely wetted. After the liquid has run out, the ticks are transferred on filter discs into plastic dishes and stored in a climate-controlled room.
Efficacy is assessed after 7 days by laying of fertile eggs. Eggs which are not visibly fertile are stored in a climate-controlled cabinet until the larvae hatch after about 42 days. An efficacy of 100% means that none of the ticks has laid any fertile eggs; 0% means that all the eggs are fertile.

[5] = reversed-phase column (C18), Table I-T3

Row | Structure (SMILES) | log P [1, 5] | efficacy (Ctenocephalides felis [2]) | efficacy (Rhipicephalus sanguineus; application rate 5 μg/cm2) | logP^a) [1] | efficacy (kill) (Musca domestica) | efficacy (kill) (Ctenocephalides felis [3]) | efficacy (laying of fertile eggs) (Boophilus microplus) | efficacy (Tetranychus urticae; application rate 500 g/ha) | efficacy (Phaedon cochleariae; application rate 500 g/ha) | efficacy (kill) (Lucilia cuprina) | efficacy (Spodoptera frugiperda; application rate 500 g/ha) | efficacy (Myzus persicae; application rate 100 g/ha) | efficacy (laying of fertile eggs) [4] | efficacy (Tetranychus urticae; application rate 100 g/ha) | efficacy (Phaedon cochleariae; application rate 100 g/ha) | efficacy (Spodoptera frugiperda; application rate 100 g/ha) | logP^a) ([1]; reversed-phase column (C18)) | other results
1 | O=C(NC1CC1)c1cc(-c2cnn(-c3c(Cl)cc(C(F)(C(F)(F)F)C(F)(F)F)cc3OC(F)F)c2)cnc1Cl [I-T3-196] | 3.9 | 100% | 100% | – | – | – | – | – | – | – | – | – | – | – | – | – | – | –
2 | O=C(NC1CC1)c1cc(-c2cnn(-c3ccc(OC(F)(F)F)cc3Cl)c2)ccc1Cl [I-T3-90] | 3.6 | – | 100% | 3.6 | 90% | 100% | 100% | 90% | 100% | 100% | 100% | – | – | – | – | – | – | –
3 | CCc1cc(C(F)(C(F)(F)F)C(F)(F)F)cc(C)c1-n1cc(-c2ccc(Cl)c(C(=O)NC3CSC3)c2)cn1 [I-T3-47] | – | – | 100% | 5.0 | – | 100% | 100% | 100% | 100% | 100% | 100% | – | – | – | – | – | – | logP^a) [1, 5]: 5.0
4 | CN(C(=O)c1cc(-c2cnn(-c3c(Cl)cc(C(F)(F)F)cc3Cl)c2)cnc1Cl)C1CC1 [I-T3-99] | 3.5 | 100% | – | 3.5 | 90% | 100% | 100% | – | – | 100% | – | 100% | 90% | 100% | 100% | 100% | – | –
5 | O=C(NC1CC1)c1cc(-c2cnn(-c3ccc(C(F)(C(F)(F)F)C(F)(F)F)cc3C(F)(F)F)c2)ccc1Cl [I-T3-52] | – | – | 100% | 4.3 | 100% | 100% | 100% | – | – | 100% | – | – | – | 90% | 100% | 100% | – | logP^a) [1, 5]: 4.3
6 | Cc1ncc(-c2cnn(-c3c(Cl)cc(C(F)(C(F)(F)F)C(F)(F)F)cc3C(F)(F)F)c2)cc1C(=O)N(C)C1CC1 [I-T3-130] | 3.8 | 100% | – | – | 100% | 100% | 100% | – | – | 100% | – | 100% | 100% | 100% | 100% | 100% | 3.8 | –
7 | Cc1cc(C(F)(C(F)(F)F)C(F)(F)F)cc(C)c1-c1cnn(-c2ccc(Cl)c(C(=O)NC3CC3)c2)c1 [I-T4-1, N-cyclopropyl-2-chloro-5-[4-[2,6-dimethyl-4-[1,2,2,2-tetrafluoro-1-(trifluoromethyl)ethyl]phenyl]pyrazol-1-yl]benzamide] | – | – | 100% | – | – | – | – | – | – | – | – | – | – | – | – | – | – | logP [1]: 4.7; pest or weed control at 0.02 mg (Boophilus microplus; Rhipicephalus microplus, 168 h, read-out: efficacy (laying of fertile eggs)): 100%
8 | Cc1cc(C(F)(C(F)(F)F)C(F)(F)F)cc(C(F)(F)F)c1-n1cc(-c2ccc(Cl)c(C(=S)NC3CC3)c2)cn1 [I-T3-161, 2-chloro-N-cyclopropyl-5-[1-[2-methyl-4-[1,2,2,2-tetrafluoro-1-(trifluoromethyl)ethyl]-6-(trifluoromethyl)phenyl]pyrazo-4-yl]benzenecarbothioamide] | 5.0 | – | 100% | – | 100% | 100% | 100% | – | – | 100% | – | – | – | 100% | 100% | 100% | 5.0 | logP [1]: 5.0
9 | COc1ncc(-c2cnn(-c3c(C)cc(C(F)(C(F)(F)F)C(F)(F)F)cc3C)c2)cc1C(=O)NC1(C#N)CC1 [I-T3-141] | 4.4 | – | – | – | 100% | 100% | 100% | – | – | 100% | – | – | – | – | 100% | 100% | 4.4 | efficacy (Rhipicephalus sanguineus; application rate 1 μg/cm2): 100%
10 | Cc1cc(C(F)(C(F)(F)F)C(F)(F)F)cc(C)c1-n1cc(-c2cnc(C)c(C(=O)N(C)C3CC3)c2)cn1 [I-T3-120] | 3.6 | 100% | – | – | 100% | 100% | 100% | 100% | 100% | 100% | 100% | 100% | 100% | – | – | – | 3.6 | efficacy (Myzus persicae; application rate 500 g/ha): 90%
